Experimental data taken from PubChem BioAssay AID449764 (Southern Research Specialized Biocontainment Screening …, 2010).

System: Mycobacterium tuberculosis H37Rv growth inhibition, no glycerol
Assay: Confirmatory growth inhibition assay, Mycobacterium tuberculosis H37Rv, absence of glycerol (AID 449764);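 also: growth read after 7 days of incubation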
Conditions: for IC90: measured here: IC90 growth inhibition

SMILES: Cc1ccc2[nH]c3c(N4CCN(Cc5ccccc5)CC4)ncnc3c2c1
- IC50: 25.1 µM
- IC90: 46 µM

SMILES: Cc1cccc(OCC(=O)NNC(=O)c2cc3ccccc3oc2=O)c1
- IC90: > 100 µM

SMILES: C/C(=N/NC(=O)c1ccccn1)c1c[nH]c2ccccc12
- IC50: 10.6 µM
- IC90: 21.4 µM

SMILES: Oc1ccc(N=Nc2n[nH]c(-c3ccc(Cl)cc3)n2)cc1
- IC50: 12.9 µM
- IC90: 32.4 µM

SMILES: CCOC(=O)C1CCN(CC(O)COc2ccc(C(C)(C)CC)cc2)CC1 (stereo not given)
- IC50: 23.2 µM
- IC90: 26.5 µM

SMILES: Cc1cc(C)c2nc(-c3ccncc3)cc(C(=O)N3CCN(Cc4ccccc4Cl)CC3)c2c1
- IC50: 31.3 µM
- IC90: 43.7 µM

SMILES: Cc1nn(-c2ccccc2)c(N)c1C(c1ccc(C(C)C)cc1)c1c(C)nn(-c2ccccc2)c1N
- IC50: 22.9 µM
- IC90: 25.8 µM

SMILES: Cn1cc(NC(=O)CCl)cn1
- IC50: 8.55 µM
- IC90: 16.1 µM

SMILES: CCc1cc(OCCCCNCc2ccccc2)ccc1Cl
- IC50: 26.9 µM
- IC90: 36 µM

SMILES: Oc1ccc(/C=N/NC(=S)N2CCOCC2)cc1
- IC50: 6.06 µM
- IC90: 6.83 µM

SMILES: CC[C@@H](C)[C@H](CN[C@H](CNC)C(C)C)NC[C@@H](C)c1ccc(CC(C)C)cc1
- IC50: 13.3 µM
- IC90: 15.4 µM

SMILES: Cn1nc(-c2ccccn2)nc2c(=O)n(C)c(=O)nc1-2
- IC50: 12.5 µM
- IC90: 13 µM

SMILES: CC(C)OC(=O)CCCCCN1C(=O)CSC1=S
- IC50: 11.5 µM
- IC90: 19.2 µM

SMILES: Cc1nc(SCC(=O)NCC2CCCO2)c2c3c(sc2n1)CCCC3 (stereo not given)
- IC50: 23 µM
- IC90: 25.2 µM

SMILES: CCCCNc1c(-c2ccc(SC3CCCCC3)c(OC)c2)nc2ccc(C)cn12
- IC50: 11.8 µM
- IC90: 13.5 µM

SMILES: c1ccc(CN2CCN(CCCNc3ccc4nnc(-c5ccccc5)n4n3)CC2)cc1
- IC50: 22.1 µM
- IC90: 25.3 µM

SMILES: CC(C)c1ccc(N2C(=O)NC(=O)/C(=C\C=C\c3ccco3)C2=O)cc1
- IC50: 44.5 µM
- IC90: 49.7 µM

SMILES: CC(O)CNc1nc2ccccc2n1-c1ncnc2sc3c(c12)CCC3 (stereo not given)
- IC50: 35.2 µM
- IC90: 42.1 µM

SMILES: CC(C)OC(=O)CSc1nc2ccccc2s1
- IC50: 22.1 µM
- IC90: 36.7 µM

SMILES: CC(C)(C)NC(=O)COC(=O)c1cc(Br)ccc1Cl
- IC50: 24.3 µM
- IC90: 45.4 µM

SMILES: COc1nn(-c2ccccc2)c(=O)c(Cl)c1Cl
- IC50: 10.3 µM
- IC90: 13.6 µM

SMILES: CCOc1ncccc1C(=O)OCC(=O)N1CCc2ccccc21
- IC50: 25.5 µM
- IC90: > 100 µM

SMILES: Cc1ncc(C23CC4CC(CC(C4)C2)C3)[nH]1
- IC50: 76.1 µM
- IC90: 96.7 µM

SMILES: CC1Cc2ccccc2N1C(=S)NC(=O)c1ccc(Cl)cc1Cl (stereo not given)
- IC50: 17 µM
- IC90: > 100 µM

SMILES: O[C@@H](c1cc(C(F)(F)F)nc2c(C(F)(F)F)cccc12)[C@H]1CCCCN1
- IC50: 22.7 µM
- IC90: 25.5 µM

SMILES: CCc1ccc2c(c1)/C(=C/C(=O)c1cccs1)C(=O)N2
- IC50: 2.55 µM
- IC90: 4.12 µM

SMILES: Cc1cc(Cl)ccc1NNC(=O)CCc1ccccc1
- IC50: 84.1 µM
- IC90: > 100 µM

SMILES: CCc1ccc2nc(N3C(=O)C(O)=C(C(=O)c4ccco4)C3c3cccs3)sc2c1 (stereo not given)
- IC50: 86.3 µM
- IC90: 95.2 µM

SMILES: COC(=O)c1ccc(COC(=O)CCc2nc(-c3ccccc3)c(-c3ccccc3)o2)cc1
- IC50: 44.9 µM
- IC90: > 100 µM

SMILES: O=C1CCc2ccc(OCCCCN3CCN(c4cccc(Cl)c4Cl)CC3)cc2N1
- IC50: 33.3 µM
- IC90: > 100 µM

SMILES: Cc1cc(-c2ccc(Cl)cc2)c2cnn(C(C)C)c2n1
- IC50: 38.9 µM
- IC90: 58.1 µM

SMILES: OC(CNCCc1ccc(C(F)(F)F)cc1)COC(c1ccccc1)c1ccccc1 (stereo not given)
- IC50: 19.7 µM
- IC90: 23.1 µM

SMILES: c1ccc(CC2CCN(C3=Nc4cccc5cccc3c45)CC2)cc1
- IC50: 28.3 µM
- IC90: 37.9 µM

SMILES: O=c1c(C=Nc2ccc(Oc3ccccc3)cc2)c[nH]n1-c1cccc(Cl)n1
- IC50: 23.3 µM
- IC90: > 100 µM

SMILES: CCN1CCN(Cc2ccc(NC(=O)c3ccc(C)c(/C=C/c4cnc(Nc5cc(N6CCNCC6)nc(C)n5)cn4)c3)cc2C(F)(F)F)CC1
- IC50: 66.6 µM
- IC90: 89.8 µM

SMILES: COC(=O)c1ccc(-c2ncc(-c3cccc4ccccc34)o2)cc1
- IC50: 80.3 µM
- IC90: > 100 µM

SMILES: C=CCNC(=O)c1onc(CCl)c1C(=O)OC
- IC50: 5.76 µM
- IC90: 14.2 µM

SMILES: O=S1(=O)N(CCN2CC=C(c3c[nH]c4cc(F)ccc34)CC2)c2cccc3c2N1CCC3
- IC50: 11.2 µM
- IC90: 12.3 µM

SMILES: COc1ccc(-c2nnc(SCC(=O)N3CCc4ccccc4C3)o2)cc1
- IC50: 30.6 µM
- IC90: 45.3 µM

SMILES: O=C(Nc1cccc(-c2nc3ccccc3s2)c1)c1cc(-n2cnnc2)ccc1Cl
- IC50: 14 µM
- IC90: 22 µM

SMILES: CC1=NN(c2ccccc2)C(=O)/C1=C\c1c(C)[nH]n(-c2ccccc2)c1=O
- IC90: > 100 µM

SMILES: CCOC(=O)c1nnc(-c2ccccc2)nc1NCc1ccccc1
- IC50: 19.2 µM
- IC90: > 100 µM

SMILES: CC1(C)OC(=O)C(=Cc2ccc[nH]2)C(=O)O1
- IC50: < 0.2 µM
- IC90: > 100 µM

SMILES: Cc1ccc(CNC(=O)c2sc3nc4c(c(C(F)(F)F)c3c2N)CCC4)cc1
- IC50: 46.3 µM
- IC90: 50.9 µM

SMILES: COc1ccc(-c2c(C#N)c(SCC(=O)c3cc4ccccc4oc3=O)nc(C)c2C(=O)Nc2ccccc2)cc1
- IC50: 72.3 µM
- IC90: > 100 µM

SMILES: CCOC(=O)CSc1nc(N)c(C(=O)Nc2ccc(N(C)C)cc2)s1
- IC50: 4.23 µM
- IC90: 9.77 µM

SMILES: O=C(Nc1nc2ccc(SC(F)F)cc2s1)c1ccc(NS(=O)(=O)c2ccc(F)c(F)c2)cc1
- IC50: 11.9 µM
- IC90: 18.9 µM

SMILES: Cc1nn(-c2ccccc2)nc1C(=O)c1c(C)[nH]n(-c2ccccc2)c1=O
- IC50: 17.5 µM
- IC90: 23.2 µM

SMILES: CCCCn1c(=O)c(C(=O)Nc2ncccc2C)c(O)c2ccccc21
- IC50: 17 µM
- IC90: 22.1 µM

SMILES: CC(=O)Oc1ccc(/C=N\NC(=O)c2cc3c(ccc4ccccc43)o2)cc1
- IC90: > 100 µM

SMILES: C=C1C(=O)[C@@]23[C@H](O)C[C@@H]4C(C)(C)CC[C@H](O)[C@@]4(C)[C@@H]2CC[C@@H]1[C@H]3O
- IC50: 8.35 µM
- IC90: 11.3 µM

SMILES: CN(C)c1ccc(CNC2C3CC4CC(C3)CC2C4)cc1 (stereo not given)
- IC50: 12.2 µM
- IC90: 17 µM

SMILES: O=C(CCn1c(=O)c2cccn2c2cccnc21)N1CCN(c2cccc(Cl)c2)CC1
- IC50: 30.6 µM
- IC90: 46.9 µM

SMILES: CNC(=S)/N=C/NOCc1c(Cl)cccc1Cl
- IC50: 2.96 µM
- IC90: 3.35 µM

SMILES: Cc1ccc(S(=O)(=O)NNC(=O)c2cc([N+](=O)[O-])c(C)c([N+](=O)[O-])c2)cc1
- IC50: 10.5 µM
- IC90: 13.8 µM

SMILES: CN1C(=S)SC(N(O)C(=O)Nc2ccc(Cl)c(Cl)c2)C1(C)C (stereo not given)
- IC50: 23.4 µM
- IC90: 26.6 µM

SMILES: CCc1ccc2nc(N(CCCN(C)C)C(=O)c3ccc(S(=O)(=O)N4CCCc5ccccc54)cc3)sc2c1
- IC50: 35 µM
- IC90: 41 µM

SMILES: COc1cc2c(cc1NC(=O)CN1C(=O)NC3(CCc4ccccc43)C1=O)oc1ccccc12 (stereo not given)
- IC50: 19.9 µM
- IC90: > 100 µM

SMILES: CCCC(NCC(O)COc1ccc(-c2ccccc2)cc1)c1ccccc1 (stereo not given)
- IC50: 12.8 µM
- IC90: 14.7 µM

SMILES: CCCCOc1ccc(Br)cc1/C(C)=N/NC1=NCCN1
- IC50: 22.4 µM
- IC90: 31.8 µM

SMILES: CC12CCC(=O)N1C(C(=O)Nc1ccc(SC(F)F)cc1)CS2 (stereo not given)
- IC50: 47.8 µM
- IC90: > 100 µM

SMILES: C=CC[n+]1ccn(-c2nc3ccccc3nc2[N-]S(=O)(=O)c2cccs2)c1
- IC50: 42.6 µM
- IC90: 48.1 µM

SMILES: COC(=O)C1CC(=O)N(c2ccc(OCc3ccccc3Cl)cc2)C1 (stereo not given)
- IC50: 1.26 µM
- IC90: 4.8 µM

SMILES: C=CCOc1ccccc1CN(C(=O)CCl)c1ccc2c(c1)OCO2
- IC50: 2.7 µM
- IC90: 3.72 µM
